{
  "source": "patent US10081615B2",
  "about": "“Sulfamate derivative compounds for use in treating or alleviating pain” (Bio-Pharm Solutions Co., Ltd., priority 2013, dated 2018)",
  "key": {"[1]": {"test_system": "Vincristine-induced pain model", "assay": "Antiallodynic activity in the vincristine-induced pain model (von Frey)", "type": "in vivo, Sprague-Dawley rats", "conditions": "rat, intraperitoneal, 0.5 h; for ED50: ip", "method": "Male, Sprague-Dawley rats (300-320 g, Nara Bio, Korea) were habituated for 1 week before surgery and allowed free access to food and water throughout the experimentation. Room temperature and humidity were maintained at 24±2° C. and 50±10%, respectively.\nThe vincristine-induced pain model was established by the procedure of Natsuko et al. (2001) with minor modifications. Vincristine was intravenously infused continuously for 14 days using a mini-osmotic pump as follows: Vincristine sulfate solution (Hospira, Australia) was diluted with 0.9% saline to a final dose of 30 ug/kg. The pumps (Alzet Model 2002, USA) were filled with the vincristine solution and primed by incubation at 37° C. for 4 h before the infusion. Briefly, animals were put under gaseous anesthesia with isoflurane and NO with a 4:4 flow ratio. A catheter made from PE-60 tubing was inserted into an external jugular vein in the rat. Sham controls were prepared in the same manner, with the external jugular vein exposed, but not cut down. Preparation of the vehicle controls were identical to the group treated with compound, except for administration of vehicles without compound in the vehicle control group.\nTactile sensitivity (mechanical allodynia) was evaluated using von Frey monofilaments before and after treatment, and the animals were included in the study only if the withdrawal threshold value was less than 4 g. One week after surgery, vincristine-infused animals (n=6), sham-operated animals (n=12) and vehicle-operated (n=18) animals were tested for tactile sensitivity with von Frey monofilaments with 3 trials in each animal. All animals were placed in a stainless steel mesh chamber and habituated for 30 min in the test cage. The tactile sensitivity for the ipsilateral hind paw was measured using the up-and-down method (Dixon, 1980) with seven von Frey monofilaments (0.4, 1, 2, 4, 6, 8, and 15 g) in 3 trials. The tactile sensitivity test was followed by Dixon's method. The 50% paw withdrawal threshold for each paw was calculated using the following formula: [Xth] log=[vFr] log+ky where [vFr] is the force of the last von Frey used, k=0.2249 which is the average interval (in log units) between the von Frey monofilaments, and y is a value that depends upon the pattern of withdrawal responses (Dixon, 1980).\n[…] The test was performed at the peak time of efficacy (0.5 hr) after compound administration.\nThe relative values compared to the sham (% control) were calculated and are shown in Table 11, which show an antiallodynic effect of the compound of examples in the vincristine-induced pain model in rats."}, "STZ-induced pain model": {"test_system": "STZ-induced pain model", "assay": "Antiallodynic activity in the streptozotocin (STZ)-induced diabetic pain model (von Frey)", "type": "in vivo, Sprague-Dawley rats", "conditions": "0.5 h; for ED50: ip", "method": "Male, Sprague-Dawley rats (200-220 g, Nara Bio, Korea) were habituated for 1 week before surgery and allowed free access to food and water throughout the experimentation. Room temperature and humidity were maintained at 24±2° C. and 50±10%, respectively.\nThe STZ-induced diabetic pain model was established with a modified method of Rakieten et al. (1963) and Bertrand Aubel et al. (2004). All animals were fasted for 4 to 6 hr prior to STZ injection. STZ (sigma, USA) was dissolved in 20 mM sodium citrate buffer, pH 5.5 (Sigma. USA) and intraperitoneally injected at 75 mg/kg, 4 ul/g by bodyweight into the rats. Sham controls were injected with same volume of 20 mM sodium citrate buffer, pH 5.5, and vehicle controls were identical to STZ model except for administration of vehicles without treatment. Rats were supplied with 10% sucrose water for 2 days to protect against sudden hypoglycemia, 3 days later, the induction of diabetes was checked by the measurement of tail vein blood glucose levels with a blood glucose meter. (LifeScan OneTouch Ultra, USA). […]\nTactile sensitivity (mechanical allodynia) was evaluated using von Frey monofilaments before and after treatment of the compound of Examples and the animals were included in the study only if the withdrawal threshold value was less than 4 g. […] The tactile sensitivity for the ipsilateral hind paw was measured using the up-and-down method (Dixon, 1980) with seven von Frey monofilaments (0.4, 1, 2, 4, 6, 8, and 15 g) in 3 trials. […] The 50% paw withdrawal threshold for each paw was calculated using the following formula: [Xth] log=[vFr] log+ky where [vFr] is the force of the last von Frey used, k=0.2249 which is the average interval (in log units) between the von Frey monofilaments, and y is a value that depends upon the pattern of withdrawal responses (Dixon, 1980). […]\nThe relative values compared to the sham (% control) were calculated and shown in Table 9, which show an antiallodynic effect of the compound of examples on STZ-induced pain model in rats."}, "[2]": {"test_system": "acetic acid-induced writhes", "assay": "Writhing test (acetic acid)", "type": "in vivo, ICR mice", "method": "To examine the pain relief effect of the sulfamate derivative compounds, a writhing test was referring to Fischer, L. G. et al. (2008).\nICR mice (male, 24-28 g; Orient Bio, Korea) were habituated before test in test room for 1 hour. Animals were fasted for 2 hr before administration of compounds. […] All compounds were dissolved in a vehicle of 30% (v/v) PEG 400 or 20% (v/v) Tween 80. The control group was treated with the vehicle without compounds.\n[…] Animals were habituated in the cage for 5 min. 5 min after habituation, the number of writhes (abdominal constriction) was counted for 15 minutes referring to Korzeniewska-Rybicka, I. et al. (1998) and compared with that of the control."}, "[3]": {"conditions": "Mus musculus, po, 0.5 h, read-out: Writh test: ED50 mg/kg"}},
  "note": "Like-named read-outs stand apart in the source and are kept apart here.",
  "data": [
    {"compound": "CC1(C)Oc2ccccc2C(COS([NH-])(=O)=O)O1.[Na+]", "note": "(centres unmarked) [Example 60, Sodium (((2,2-dimethyl-4H-benzo[d][1,3]dioxin-4-yl)methoxy)sulfonyl)amide Trihydrate]", "values": [
      {"measurement": "ED50", "setting": "[1]", "value": 2.4, "unit": "mg/kg"},
      {"measurement": "ED50", "setting": "STZ-induced pain model; Rattus norvegicus, read-out: STZ model: ED50 mg/kg", "value": 16.1, "unit": "mg/kg"},
      {"measurement": "ED50", "setting": "[2]; [3]", "value": 21, "unit": "mg/kg"}
    ]},
    {"compound": "CC1(C)Oc2ccccc2[C@@H](COS(N)(=O)=O)O1", "note": "[Example 2, ((S)-2,2-dimethyl-4H-benzo[d][1,3]dioxin-4-yl)methyl sulfamate]", "values": [
      {"measurement": "ED50", "setting": "STZ-induced pain model; rat, intraperitoneal, read-out: STZ model: ED50", "value": 27.4, "unit": "mg/kg"},
      {"measurement": "ED50", "setting": "[2]; mouse, oral, 1 h, read-out: Writh test: ED50", "value": 152, "unit": "mg/kg"}
    ]},
    {"compound": "CC1(C)Oc2ccccc2[C@H](COS([NH-])(=O)=O)O1.[Na+]", "note": "[Example 58, Sodium (R)-(((2,2-dimethyl-4H-benzo[d][1,3]dioxin-4-yl)methoxy)sulfonyl)amide Trihydrate]", "values": [
      {"measurement": "ED50", "setting": "[1]", "value": 6.2, "unit": "mg/kg"}
    ]},
    {"compound": "CC1(C)Oc2ccccc2[C@H](COS([NH-])(=O)=O)O1.[K+]", "note": "[Example 70, Potassium (R)-(((2,2-dimethyl-4H-benzo[d][1,3]dioxin-4-yl)methoxy)sulfonyl)amide]", "values": [
      {"measurement": "Vincristine model: effect (%) compared to control", "setting": "[1]; 2.4 mg/kg administered", "value": "(36.2%, 0.5 h)"},
      {"measurement": "Writh test: effect (%) compared to control", "setting": "[2]; mouse, oral, 80 mg/kg administered, 1 hr", "value": "(29.1%, 1 hr)"}
    ]},
    {"compound": "[NH-]S(=O)(=O)OC[C@H]1OC2(CCCC2)Oc2ccccc21.[Na+]", "note": "[Example 65, Sodium (S)-(((4H-spiro[benzo[d][1,3]dioxine-2,1′-cyclopentan]-4-yl)methoxy)sulfonyl)amide]", "values": [
      {"measurement": "ED50", "setting": "[1]", "value": 8.2, "unit": "mg/kg"},
      {"measurement": "STZ model: effect (%) compared to control", "setting": "STZ-induced pain model; rat, intraperitoneal, 100 mg/kg administered", "value": "(25.7%, 0.5 h)"},
      {"measurement": "ED50", "setting": "[2]; [3]", "value": 55.1, "unit": "mg/kg"}
    ]}
  ]
}
